“Also recorded” adds a separate entry of the source.
What was measured:
ROCK1 [1] = target: T1, ROCK1 (Homo sapiens, UniProt Q13464); experiment: DiscoverX kinome screen; assay type: binding; set-up: are incubated with DNA-tagged kinase domains tagged; DNA tag; purchased DiscoverX; conditions: 10,000 nM API
Procedure: (§1) A 468-target kinome screen and a safety screen were carried out to examine the off-target profiles of different kinase inhibitors (DiscoverX, Freemont, Calif.). The kinome screen is a binding assay where API interference of kinase domain/substrate binding is assessed as percent of control. Less than 10% binding (or >90% binding inhibition) is most biologically relevant and considered as a ‘hit’. BA-2017 only had 7 off-target hits compared to BA-1049 and Netarsudil, which both had 11 hits (Table 1) (Studirvant et al. 2016 Bioorg Med Chem Lett. 26(10):2475-2480). […] Published data for Netarsudil were with 200 times less API. […] The NET activity likely helps to decrease IOP but might increase hyperemia, while the SERT activity might have long-term safety consequences (Costagliola et al. 2004 CNS drugs 18(8): p. 475-484).
(§2) In the kinome screen BA-2017 had fewer off-target hits (Table 1) than BA-1049. […] An interesting hit from the kinome screen was on Abl (Table 1), an oncogene that also regulates many cellular activities, including vascular leakage.
Target sequence in this assay (Q13464 76-338 limits assumed): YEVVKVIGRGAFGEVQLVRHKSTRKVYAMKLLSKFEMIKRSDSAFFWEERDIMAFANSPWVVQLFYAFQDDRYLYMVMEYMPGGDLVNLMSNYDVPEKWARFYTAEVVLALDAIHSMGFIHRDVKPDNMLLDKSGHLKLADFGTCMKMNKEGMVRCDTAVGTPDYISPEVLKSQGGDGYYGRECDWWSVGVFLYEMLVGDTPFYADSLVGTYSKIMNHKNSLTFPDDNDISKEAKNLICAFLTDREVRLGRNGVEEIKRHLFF

ROCK2 [2] = target: T2, ROCK2 (Homo sapiens, UniProt O75116); experiment: DiscoverX kinome screen; assay type: binding; set-up: are incubated with DNA-tagged kinase domains tagged; DNA tag; purchased DiscoverX; conditions: 10,000 nM API
Procedure: as §1, §2
Target sequence in this assay (O75116 92-354 limits assumed): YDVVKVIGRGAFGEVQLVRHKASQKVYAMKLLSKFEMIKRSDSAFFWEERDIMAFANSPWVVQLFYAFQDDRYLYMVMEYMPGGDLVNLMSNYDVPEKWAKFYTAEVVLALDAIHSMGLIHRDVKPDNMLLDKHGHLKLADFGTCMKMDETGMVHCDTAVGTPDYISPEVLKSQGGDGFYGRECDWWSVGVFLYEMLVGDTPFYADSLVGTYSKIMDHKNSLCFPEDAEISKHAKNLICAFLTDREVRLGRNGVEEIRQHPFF

[3] = Penetration and distribution in ocular tissues after topical instillation (LC-MS); assay type: in vivo, Sprague Dawley rats; conditions: topical 3% solution of metabolite, 20 minutes
Procedure: (§3) Adult Sprague Dawley rats (Charles River Laboratories) were used for this experiment. […] One g of tissue was homogenized in 1 mL of 1×PBS. Homogenates were precipitated by pipetting 200 μL of homogenate into a tube using aseptically cut off 1000 μL pipette tips to prevent clogging. Samples are further diluted with 100 μL PBS to aid in precipitation. 900 μL of cold methanol was added to each sample and samples were vortexed for 5 to 10 seconds. Samples were placed at 4° C. for 30 to 40 min and then centrifuged at 10,000 g for 15 min at 4° C. The supernatant is collected and stored at −80° C. until analyzed.
For the optic nerve sample, the concentration is shown per length of optic nerve (right y-axis). […] Therefore, drug is available in the retina and optic nerve for treating these tissues affected in glaucoma and other retinal diseases.
In FIG. 14 we examined the ability of metabolite to penetrate the ocular tissues of the eye after topical instillation of a 3% solution of metabolite. In comparison with FIG. 13, that also the metabolite has adequate penetration into ocular and CNS tissue. Of particular note is the penetration in the retina and presence in the optic nerve. All compounds were given topically as eye drops to the eye of adult Sprague Dawley rats. Twenty minutes later the indicated tissues were removed and the parent compound and active metabolite were analyzed by LC/MS.

PKC Δ = target: T3, PKC Δ (Homo sapiens, UniProt Q05655); experiment: DiscoverX kinome screen; assay type: binding; conditions: 10,000 nM API
T3 construct: are incubated with DNA-tagged kinase domains tagged; DNA tag; purchased DiscoverX
Procedure: as §1, §2

PKC ε = target: T4, PKC ε (Homo sapiens, UniProt Q02156); experiment: DiscoverX kinome screen; assay type: binding; conditions: 10,000 nM API
T4 construct: are incubated with DNA-tagged kinase domains tagged; DNA tag; purchased DiscoverX
Procedure: as §1, §2

ROCK2 [4] = target: T2, ROCK2; experiment: IC50 determined at 10 μM ATP; assay type: biochemical; set-up: purchased Eurofins Testing (Dundee, Scotland, UK); conditions: for IC50: 10 μM ATP (below Km), * = preliminary
Text: The data in Table 2 were obtained at ATP concentration below those corresponding to Km.
Target sequence in this assay (O75116 whole entry, the tested form may be a part): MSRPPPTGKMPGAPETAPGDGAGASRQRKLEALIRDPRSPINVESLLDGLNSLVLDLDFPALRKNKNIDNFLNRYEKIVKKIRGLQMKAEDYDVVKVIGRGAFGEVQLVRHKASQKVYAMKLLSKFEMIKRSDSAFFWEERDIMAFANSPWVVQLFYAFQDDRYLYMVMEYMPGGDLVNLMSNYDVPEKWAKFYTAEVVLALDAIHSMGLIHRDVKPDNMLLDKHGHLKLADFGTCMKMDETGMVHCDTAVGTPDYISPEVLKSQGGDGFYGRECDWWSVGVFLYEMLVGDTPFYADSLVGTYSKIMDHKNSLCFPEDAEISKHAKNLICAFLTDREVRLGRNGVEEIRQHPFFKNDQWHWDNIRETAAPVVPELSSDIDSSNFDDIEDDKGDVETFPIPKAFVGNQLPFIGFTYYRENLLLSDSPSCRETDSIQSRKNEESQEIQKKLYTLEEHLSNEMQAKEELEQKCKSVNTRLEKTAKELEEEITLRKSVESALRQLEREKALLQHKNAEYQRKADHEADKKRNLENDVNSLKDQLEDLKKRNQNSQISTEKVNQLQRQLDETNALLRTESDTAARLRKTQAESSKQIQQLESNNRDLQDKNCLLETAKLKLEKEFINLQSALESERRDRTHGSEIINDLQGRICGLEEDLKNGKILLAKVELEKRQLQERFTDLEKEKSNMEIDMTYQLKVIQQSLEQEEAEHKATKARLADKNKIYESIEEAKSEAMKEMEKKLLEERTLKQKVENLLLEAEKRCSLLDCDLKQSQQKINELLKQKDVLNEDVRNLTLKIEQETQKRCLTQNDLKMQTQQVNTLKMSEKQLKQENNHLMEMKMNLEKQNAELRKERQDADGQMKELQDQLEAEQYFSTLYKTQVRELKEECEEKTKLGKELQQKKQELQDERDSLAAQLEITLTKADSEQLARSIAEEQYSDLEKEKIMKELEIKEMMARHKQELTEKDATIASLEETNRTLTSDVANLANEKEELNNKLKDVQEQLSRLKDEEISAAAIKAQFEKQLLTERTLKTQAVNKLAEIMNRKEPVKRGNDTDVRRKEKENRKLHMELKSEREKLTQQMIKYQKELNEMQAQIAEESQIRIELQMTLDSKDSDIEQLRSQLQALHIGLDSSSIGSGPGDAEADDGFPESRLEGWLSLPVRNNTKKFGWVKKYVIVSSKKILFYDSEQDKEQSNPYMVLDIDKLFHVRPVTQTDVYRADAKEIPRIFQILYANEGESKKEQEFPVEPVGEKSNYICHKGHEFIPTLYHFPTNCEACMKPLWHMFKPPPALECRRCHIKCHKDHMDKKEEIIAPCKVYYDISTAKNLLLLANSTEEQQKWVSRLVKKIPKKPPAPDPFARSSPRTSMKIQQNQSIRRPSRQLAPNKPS

468-target kinome screen = experiment: DiscoverX kinome screen, off-target hits; assay type: binding, human; conditions: 10,000 nM API; for # Hits <10% binding: hit = less than 10% binding (>90% binding inhibition)
Procedure: as §1, §2

[5] = target: T5, norepinephrine transporter (NET) (Homo sapiens, UniProt P23975); experiment: Safety screen; assay type: biochemical; conditions: 10,000 nM API
T5 construct: purchased DiscoverX
Procedure: as §1
(§4) These targets include GPCRs, transporters, ion channels, nuclear receptors, non-kinase enzymes.

[6] = target: T6, serotonin transporter (SERT) (Homo sapiens, UniProt P31645); experiment: Safety screen; assay type: biochemical; conditions: 10,000 nM API
T6 construct: purchased DiscoverX
Procedure: as §1, §4

ROCK2 [7] = target: T2, ROCK2; experiment: Direct filter-binding radiometric kinase assay (Eurofins) at Km ATP; assay type: biochemical; set-up: purchased Eurofins Testing (Dundee, Scotland, UK); conditions: for ROCK1/ROCK2 (fold difference): IC50 at respective Km ATP
Procedure: ROCK1 and ROCK2 IC50 determinations were made using ATP concentrations at the Km ATP of 70 μM and 15 μM for ROCK1 and ROCK2, respectively.
For the data shown in Table 4, IC50 inhibition curves were performed at the respective Km for ATP for both ROCK1 and ROCK2. Performing these assays at the Km of ATP gives a better representation of the inhibitory activity. Other comparisons where differing kinases are tested at a single ATP concentration can potentially misrepresent the comparative efficacy since enzyme inhibitory activity tested below the Km for ATP of the enzyme, produces a circumstance where the enzyme is actually not constantly bound with ATP and the reaction velocity becomes sub-optimal.
Target sequence in this assay (O75116 whole entry, the tested form may be a part): as above

[8] = Brain and blood vessel exposure after oral administration; assay type: in vivo, Sprague Dawley rats
Procedure: as §3
Pathological angiogenesis that occurs in the retina is a major feature of leading blinding diseases, and particularly associated with diabetic retinopathy and age-related macular degeneration.

PKA [9] = target: T7, PKA (Homo sapiens, UniProt P17612); conditions: cited from earlier work
[10] = clinical studies; cited from earlier work
PKA, PKC and CaMKII = conditions: cited from earlier work
[11] = followed 24 months; cited from earlier work
[12] = cited from earlier work
PKA [13] = target: T7, PKA; experiment: Single dose inhibition assay of key AGC class kinases; assay type: biochemical; conditions: 10 μM API
Procedure: Molecular modeling and rational drug design were used to create and screen over 50 ROCK inhibitors. These ROCK inhibitors were screened for selectivity for ROCK2 and ability to promote neurite outgrowth. Several lead inhibitors came out of this screen and further screened for inhibition of key AGC class kinases by a single dose inhibition assay performed with 10 μM active pharmaceutical ingredient (API). The lead compound is chiral. […] They have different selectivity for ROCK2 (Table 2) and different off-target profiles (Table 1; FIG. 1).

GRK1 = target: T8, GRK1 (Homo sapiens, UniProt Q15835); experiment: DiscoverX kinome screen; assay type: binding
T8 construct: are incubated with DNA-tagged kinase domains tagged; DNA tag; purchased DiscoverX
T8 sequence (Q15835 190-455 limits assumed): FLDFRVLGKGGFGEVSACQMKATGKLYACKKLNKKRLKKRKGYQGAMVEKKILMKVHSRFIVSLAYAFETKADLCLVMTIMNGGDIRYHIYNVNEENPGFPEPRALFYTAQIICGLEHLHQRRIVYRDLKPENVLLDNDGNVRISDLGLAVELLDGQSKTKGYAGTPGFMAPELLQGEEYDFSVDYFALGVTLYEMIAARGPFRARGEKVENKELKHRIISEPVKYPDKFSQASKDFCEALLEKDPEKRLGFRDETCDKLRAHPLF
Procedure: as §1, §2

ROCK1 [14] = target: T1, ROCK1; experiment: IC50 determined at 10 μM ATP; assay type: biochemical; set-up: purchased Eurofins Testing (Dundee, Scotland, UK); conditions: 10 μM ATP (below Km)
[15] = Oral dosing of cynomolgus monkeys, systemic side effects; assay type: in vivo; conditions: 18 mg/kg oral gavage, 4 monkeys
Procedure: Oral dosing of 4 cynomolgus monkeys dosed with 18 mg/kg oral BA-1049 by oral gavage were completed to understand potential systemic side effects. The only side effects noticed at this dose was squinting by the monkeys.

T5 sequence (P23975 whole entry): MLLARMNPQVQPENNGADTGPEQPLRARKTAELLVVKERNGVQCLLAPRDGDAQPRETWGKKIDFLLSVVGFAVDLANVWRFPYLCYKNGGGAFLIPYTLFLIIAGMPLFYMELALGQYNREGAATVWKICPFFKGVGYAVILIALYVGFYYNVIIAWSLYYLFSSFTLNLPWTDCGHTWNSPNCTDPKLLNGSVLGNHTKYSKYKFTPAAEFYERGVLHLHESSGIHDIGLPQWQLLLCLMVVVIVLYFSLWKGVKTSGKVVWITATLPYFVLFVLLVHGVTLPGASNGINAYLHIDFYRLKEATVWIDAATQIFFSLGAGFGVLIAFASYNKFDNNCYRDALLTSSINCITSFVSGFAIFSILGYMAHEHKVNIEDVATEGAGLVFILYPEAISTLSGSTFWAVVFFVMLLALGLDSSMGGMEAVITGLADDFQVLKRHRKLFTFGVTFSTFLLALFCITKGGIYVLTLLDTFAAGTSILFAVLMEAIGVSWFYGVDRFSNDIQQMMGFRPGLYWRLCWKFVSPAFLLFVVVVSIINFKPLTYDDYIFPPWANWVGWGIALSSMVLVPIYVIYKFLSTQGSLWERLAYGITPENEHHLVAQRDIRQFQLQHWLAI
T3 sequence (Q05655 349-603 limits assumed, stated change not applied): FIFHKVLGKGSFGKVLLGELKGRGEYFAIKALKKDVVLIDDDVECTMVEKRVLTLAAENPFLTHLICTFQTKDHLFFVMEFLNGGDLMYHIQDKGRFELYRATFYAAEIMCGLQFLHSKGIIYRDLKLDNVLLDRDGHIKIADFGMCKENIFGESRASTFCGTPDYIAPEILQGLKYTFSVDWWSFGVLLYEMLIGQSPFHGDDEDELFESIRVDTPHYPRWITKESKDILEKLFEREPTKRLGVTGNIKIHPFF
T4 sequence (Q02156 408-668 limits assumed): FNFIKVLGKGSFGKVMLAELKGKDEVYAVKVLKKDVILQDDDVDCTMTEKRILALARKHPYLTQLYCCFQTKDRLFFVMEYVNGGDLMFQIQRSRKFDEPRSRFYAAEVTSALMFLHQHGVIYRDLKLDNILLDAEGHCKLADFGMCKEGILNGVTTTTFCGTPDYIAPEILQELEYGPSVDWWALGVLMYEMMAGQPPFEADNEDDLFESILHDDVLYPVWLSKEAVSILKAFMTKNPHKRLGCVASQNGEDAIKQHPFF
T6 sequence (P31645 whole entry): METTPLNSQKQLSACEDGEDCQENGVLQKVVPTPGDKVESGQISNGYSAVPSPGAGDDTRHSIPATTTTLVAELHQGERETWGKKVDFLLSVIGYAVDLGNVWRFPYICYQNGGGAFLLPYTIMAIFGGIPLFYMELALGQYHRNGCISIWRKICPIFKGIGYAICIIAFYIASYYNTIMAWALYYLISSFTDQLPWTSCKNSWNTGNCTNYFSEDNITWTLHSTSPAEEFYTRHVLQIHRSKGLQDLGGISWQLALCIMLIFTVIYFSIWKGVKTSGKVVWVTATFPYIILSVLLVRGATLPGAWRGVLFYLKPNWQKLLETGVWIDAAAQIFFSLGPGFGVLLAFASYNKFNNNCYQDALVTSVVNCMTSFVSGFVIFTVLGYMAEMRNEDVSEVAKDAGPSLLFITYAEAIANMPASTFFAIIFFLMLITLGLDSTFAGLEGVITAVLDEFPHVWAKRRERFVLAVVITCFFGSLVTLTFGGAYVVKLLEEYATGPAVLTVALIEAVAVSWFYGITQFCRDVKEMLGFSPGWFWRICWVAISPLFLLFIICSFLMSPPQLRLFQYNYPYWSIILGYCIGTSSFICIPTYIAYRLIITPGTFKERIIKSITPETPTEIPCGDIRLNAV

SMILES	Kinome Screen % inhibition ROCK1 (ROCK1 [1]) [%]	Kinome Screen % inhibition ROCK2 (ROCK2 [2]) [%]	Kinome Screen % inhibition PKC Δ (PKC Δ) [%]	Kinome Screen % inhibition PKC ε (PKC ε) [%]	IC50 (ROCK2 [4]) [nM]	Kinome Screen Other (other off-target kinase) (468-target kinome screen)	# Hits <10% binding (468-target kinome screen)	Safety Screen % inhibition NET [5]	Safety Screen % inhibition SERT [6]	ROCK1/ROCK2 (fold difference) (ROCK2 [7])	Exposure in blood vessels [8]	Hyperemia in humans [10]	further results
C[C@@H](N)C1CCN(S(=O)(=O)c2cccc3c(=O)[nH]ccc23)CC1 [BA-2017]	>99	>99	<85	94.7	50	GRK1	7	none	none	16.5	accumulate at high concentrations in blood vessels	–	Penetration into ocular tissues [3]: can penetrate ocular tissue
C[C@@H](N)[C@H]1CC[C@H](C(=O)Nc2ccncc2)CC1 [Compound Y-27632, Y-27632]	–	–	–	–	–	–	–	–	–	–	–	–	Binding to PKA (PKA [9]): all bind PKA
C[C@H]1CNCCCN1S(=O)(=O)c1cccc2cncc(F)c12 [Ripasudil]	–	–	–	–	–	–	–	–	–	–	–	more frequent and of longer duration than Netarsudil; also recorded: cause hyperemia (red eyes) as a major side effect	Inhibition of PKA, PKC and CaMKII (PKA, PKC and CaMKII): both inhibit PKA, PKC and CaMKII
C[C@@H](N)[C@H]1CC[C@H](C(=O)Nc2ccncc2)CC1 [Compound Y27432, Y27432]	–	–	–	–	–	–	–	–	–	–	–	–	Corneal clarity and vision [11]: corneal clarity improved and vision improved
Cc1ccc(C(=O)OCc2ccc([C@@H](CN)C(=O)Nc3ccc4cnccc4c3)cc2)c(C)c1 [Netarsudil]	–	–	–	–	–	–	–	–	–	–	–	cause hyperemia (red eyes) as a major side effect	Duration of hyperemia on day 1 ([12]; 0.04% Netarsudil): at least 8 hours; Duration of mild hyperemia ([12]; Dutch belted rabbits): 4 to 8 h
C[C@@H](N)C1CCN(S(=O)(=O)c2cccc3cnccc23)CC1 [BA-1049]	>99	>99	<70	95	240	none	11	none	none	43.4	accumulate at high concentrations in blood vessels	–	Inhibition of PKA (PKA [13]): Neither compound inhibited PKA; Off-target activity on GRK1 (GRK1): has some activity toward G-protein couple protein kinase1; also recorded: showed binding to G-protein couple protein kinase1 (GRK1); Fold-difference (ROCK2 [4]; ROCK1 vs ROCK2 IC50 at 10 μM ATP): 16; IC50 (ROCK1 [14]): 3900 nM; Side effects [15]: squinting; IC50 (ROCK2 [7]; ATP at Km, 15 μM, * = higher purity BA-1076): 599 nM; Brain penetrance [8]: is able to cross the blood brain barrier

Reference: patent US10537567B2, “Kinase inhibitors for treatment of disease” (BioAxone BioSciences, Inc., priority 2017, dated 2020)
